Measurements reported in the NIST ThermoML archive (doi:10.1016/j.tca.2015.12.010).
± gives the expanded uncertainty stated by the source.

Columns and labels:
[1] = Crystal
[2] = Molar enthalpy of transition or fusion; conditions: Crystal; DSC

| SMILES | Normal melting temperature ([1]; DTA) [°C] | Normal melting temperature ([1]; Infrared thermography) [°C] | Molar enthalpy of transition or fusion [2] [kcal/mol] |
| --- | --- | --- | --- |
| OC[C@@H](O)[C@@H](O)[C@H](O)[C@H](O)CO [D-mannitol] | 167.10 ± 2.1 | 166.00 ± 10 | 13.8 ± 0.359 |
| OC[C@@H](O)[C@@H](O)[C@@H](O)CO [SRS-1,2,3,4,5-pentanepentol] | 100.00 ± 1.1 | 101.60 ± 10 | 8.44 ± 0.217 |
| OC[C@@H](O)[C@H](O)[C@H](O)[C@@H](O)CO [dulcitol] | 187.30 ± 0.5 | 189.50 ± 10 | 15.5 ± 0.382 |

Further lines, results first:

| Normal melting temperature ([1]; DTA) [°C] | Normal melting temperature ([1]; Infrared thermography) [°C] | Molar enthalpy of transition or fusion [2] [kcal/mol] | SMILES |
| --- | --- | --- | --- |
| 118.90 ± 1.1 | 121.20 ± 10 | 9.92 ± 0.263 | OC[C@@H](O)[C@@H](O)CO [meso-1,2,3,4-butanetetrol] |
| 95.10 ± 1.1 | 99.00 ± 10 | 9.13 ± 0.263 | OC[C@@H](O)[C@H](O)[C@@H](O)CO [xylitol] |
